# Laboratory results: patent publication US11814367B2, “Inhibitors of glycogen synthase 1 (GYS1) and methods of use thereof” (Maze Therapeutics, Inc., priority 2021, dated 2023)
# pIC50: −log10 of the molar value.
# Legend:
# [1] = biological target: hGYS2 enzyme (recombinant hGYS2/GN1 protein) (Homo sapiens (Human), UniProt P54840); assay: GYS2 coupled enzyme assay (PK/LDH); assay type: biochemical; conditions: geometric mean of at least 2 assay runs on separate days, read-out: Avg_IC50
# Outline: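 hGYS2/GN1 200 nM; UDP-Glc 2 mM; glycogen 0.2%; G6P 2 mM; PEP 2 mM, NADH 0.6 mM, PK/LDH 20 U/mL. 50 mM Tris pH 7.5, MgCl2, KCl, BSA, TCEP, 2.5% DMSO. Kinetic A340, 10 min. IC50 = geomean of ≥2 runs.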
# [2] = biological target: hGYS1 enzyme (recombinant hGYS1/GN1 protein) (Homo sapiens (Human), UniProt P13807); assay: GYS1 coupled enzyme assay (PK/LDH); assay type: biochemical; conditions: hGYS1/GN1 50 nM, UDP-Glucose 0.8 mM, G6P 1 mM; geometric mean of at least 2 runs
# Chain of hGYS1 enzyme (recombinant hGYS1/GN1 protein) (P13807 whole entry): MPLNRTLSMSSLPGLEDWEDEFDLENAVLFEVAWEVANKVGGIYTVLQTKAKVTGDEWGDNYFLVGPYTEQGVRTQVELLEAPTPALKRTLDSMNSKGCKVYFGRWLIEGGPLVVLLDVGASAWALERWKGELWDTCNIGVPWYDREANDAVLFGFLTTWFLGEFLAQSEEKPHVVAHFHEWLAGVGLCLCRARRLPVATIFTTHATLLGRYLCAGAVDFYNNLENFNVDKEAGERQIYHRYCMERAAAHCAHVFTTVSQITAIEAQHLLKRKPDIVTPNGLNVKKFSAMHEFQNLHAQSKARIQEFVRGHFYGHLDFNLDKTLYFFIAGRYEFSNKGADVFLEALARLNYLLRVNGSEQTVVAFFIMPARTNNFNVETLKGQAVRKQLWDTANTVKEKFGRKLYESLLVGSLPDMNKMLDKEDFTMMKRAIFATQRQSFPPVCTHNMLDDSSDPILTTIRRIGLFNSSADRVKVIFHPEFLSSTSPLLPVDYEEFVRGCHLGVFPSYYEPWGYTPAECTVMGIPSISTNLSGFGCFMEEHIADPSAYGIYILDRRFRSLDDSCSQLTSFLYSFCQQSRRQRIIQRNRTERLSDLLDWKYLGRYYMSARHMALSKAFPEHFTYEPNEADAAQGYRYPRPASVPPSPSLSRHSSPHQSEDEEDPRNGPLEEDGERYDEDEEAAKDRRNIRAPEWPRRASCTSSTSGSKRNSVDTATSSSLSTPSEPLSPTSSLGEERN
# Chain of hGYS1 enzyme (recombinant hGYS1/GN1 protein) (P46976 whole entry partner): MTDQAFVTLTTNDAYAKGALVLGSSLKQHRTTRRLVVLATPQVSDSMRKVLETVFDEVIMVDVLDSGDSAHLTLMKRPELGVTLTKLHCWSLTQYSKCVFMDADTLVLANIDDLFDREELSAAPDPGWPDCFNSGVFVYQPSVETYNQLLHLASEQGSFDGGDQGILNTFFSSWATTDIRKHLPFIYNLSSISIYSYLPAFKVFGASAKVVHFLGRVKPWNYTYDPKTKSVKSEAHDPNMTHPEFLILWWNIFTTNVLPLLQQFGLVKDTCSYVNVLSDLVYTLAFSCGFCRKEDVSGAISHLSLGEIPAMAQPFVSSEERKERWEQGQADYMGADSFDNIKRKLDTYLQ
# [3] = system: hGYS1 enzyme / glycogen synthesis in HeLa cells; assay: GYS1 cell based assay (glycogen synthesis, Glucose-glo); set-up: species or system human; conditions: Homo sapiens, HeLa, 24 h, 24 h incubation, 20 mM glucose, geometric mean of at least 2 runs
# Outline: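 HeLa cells starved 24 h in medium containing only 1× Glutamax were plated onto compound in medium with 20 mM glucose (1% DMSO final) for 24 h, 37 °C, 5% CO2. Acid lysates were Tris-quenched, glucoamylase-digested (pH 5.3, 1 h, 37 °C) and read by Glucose-glo luminescence. IC50 came from Hill fits, as geometric mean of ≥2 runs.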
# Chain of hGYS2 enzyme (recombinant hGYS2/GN1 protein) (P54840 whole entry): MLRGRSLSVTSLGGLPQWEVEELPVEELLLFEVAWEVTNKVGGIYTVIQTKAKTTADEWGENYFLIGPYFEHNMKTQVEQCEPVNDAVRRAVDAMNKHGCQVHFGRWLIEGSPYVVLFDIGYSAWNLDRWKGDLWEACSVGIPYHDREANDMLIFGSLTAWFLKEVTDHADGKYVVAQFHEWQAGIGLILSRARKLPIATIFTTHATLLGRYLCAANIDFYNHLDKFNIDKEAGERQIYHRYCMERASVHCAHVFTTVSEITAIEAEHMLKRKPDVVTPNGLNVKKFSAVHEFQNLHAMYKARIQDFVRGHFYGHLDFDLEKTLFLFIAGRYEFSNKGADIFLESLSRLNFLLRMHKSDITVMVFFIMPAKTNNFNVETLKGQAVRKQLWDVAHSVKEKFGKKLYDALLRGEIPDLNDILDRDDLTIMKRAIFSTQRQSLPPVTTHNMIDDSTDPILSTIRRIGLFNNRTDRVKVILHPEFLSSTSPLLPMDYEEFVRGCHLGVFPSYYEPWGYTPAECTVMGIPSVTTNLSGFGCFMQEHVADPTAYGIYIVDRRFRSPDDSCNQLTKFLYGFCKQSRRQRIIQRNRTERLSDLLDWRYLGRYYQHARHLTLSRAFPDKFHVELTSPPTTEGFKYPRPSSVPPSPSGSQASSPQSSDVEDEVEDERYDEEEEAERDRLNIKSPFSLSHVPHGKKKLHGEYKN
# Chain of hGYS2 enzyme (recombinant hGYS2/GN1 protein) (P46976 whole entry partner): as the sequence (P46976 whole entry partner) above
pIC50 [1],pIC50 [2],pIC50 [3],Compound
< 4.00,6.65,5.44,"CN1CCN(CC(=O)N2C[C@H](F)C[C@H]2C(=O)N[C@@H](c2ccccc2)c2ccc(C3CC3)c(F)c2)C1=O [Compound 425, (2S,4R)-N-[(S)-(4-cyclopropyl-3-fluorophenyl)(phenyl)methyl]-4-fluoro-1-[2-(3-methyl-2-oxoimidazolidin-1-yl)acetyl]pyrrolidine-2-carboxamide]"
< 4.00,6.78,5.71,"O=C(N[C@@H](c1ccccc1)c1ccc(C2CC2)c(F)c1)[C@@H]1C[C@@H](F)CN1C(=O)Cc1nnc(C(F)F)o1 [Compound 427, (2S,4R)-N-[(S)-(4-cyclopropyl-3-fluorophenyl)(phenyl)methyl]-1-{2-[5-(difluoromethyl)-1,3,4-oxadiazol-2-yl]acetyl}-4-fluoropyrrolidine-2-carboxamide]"
< 4.00,6.66,5.47,"O=C(N[C@@H](c1ccccc1)c1ccc(C2CC2)c(F)c1)[C@@H]1C[C@@H](F)CN1C(=O)Cn1cnnn1 [Compound 431, (2S,4R)-N-[(S)-(4-cyclopropyl-3-fluorophenyl)(phenyl)methyl]-4-fluoro-1-[2-(1H-1,2,3,4-tetrazol-1-yl)acetyl]pyrrolidine-2-carboxamide]"
< 4.00,7.12,5.78,"CN1CCN(C(=O)OCC(=O)N2C[C@H](F)C[C@H]2C(=O)N[C@@H](c2ccccc2)c2ccc(C3CC3)c(F)c2)CC1 [Compound 445, 2-[(2S,4R)-2-{[(S)-(4-cyclopropyl-3-fluorophenyl)(phenyl)methyl]carbamoyl}-4-fluoropyrrolidin-1-yl]-2-oxoethyl 4-methylpiperazine-1-carboxylate]"
< 4.00,7.01,5.66,"O=C(N[C@@H](c1ccccc1)c1ccc(C2CC2)c(F)c1)[C@@H]1C[C@@H](F)CN1C(=O)COC(=O)N1CCN(CC(F)(F)F)CC1 [Compound 446, 2-[(2S,4R)-2-{[(S)-(4-cyclopropyl-3-fluorophenyl)(phenyl)methyl]carbamoyl}-4-fluoropyrrolidin-1-yl]-2-oxoethyl 4-(2,2,2-trifluoroethyl)piperazine-1-carboxylate]"

# Continued, compound first:
Compound,pIC50 [1],pIC50 [2],pIC50 [3]
"CC(C)c1ccc([C@@H](NC(=O)[C@@H]2CC[C@H](C)N2C(=O)Cc2cnn[nH]2)c2ccccc2)nc1F [Compound 416, (2S,5S)-N-[(S)-[6-fluoro-5-(propan-2-yl)pyridin-2-yl](phenyl)methyl]-5-methyl-1-[2-(1H-1,2,3-triazol-5-yl)acetyl]pyrrolidine-2-carboxamide]",< 4.00,7.60,6.33
"O=C(N[C@@H](c1ccccc1)c1ccc(C2CC2)c(F)c1)[C@@H]1C[C@@H](F)CN1C(=O)Cn1cnc2ccccc21 [Compound 417, (2S,4R)-1-(2-(1H-benzo[d]imidazol-1-yl)acetyl)-N—((S)-(4-cyclopropyl-3-fluorophenyl)(phenyl)methyl)-4-fluoropyrrolidine-2-carboxamide]",< 4.00,7.64,6.35
"Cc1nnn(CC(=O)N2C[C@H](F)C[C@H]2C(=O)N[C@@H](c2ccccc2)c2ccc(C3CC3)c(F)c2)n1 [Compound 433, (2S,4R)-N-[(S)-(4-cyclopropyl-3-fluorophenyl)(phenyl)methyl]-4-fluoro-1-[2-(5-methyl-2H-1,2,3,4-tetrazol-2-yl)acetyl]pyrrolidine-2-carboxamide]",< 4.00,7.04,5.83
"Cc1cn(CC(=O)N2C[C@H](F)C[C@H]2C(=O)N[C@@H](c2ccccc2)c2ccc(C3CC3)c(F)c2)c(=O)[nH]c1=O [Compound 442, (2S,4R)-N-[(S)-(4-cyclopropyl-3-fluorophenyl)(phenyl)methyl]-4-fluoro-1-[2-(5-methyl-2,4-dioxo-1,2,3,4-tetrahydropyrimidin-1-yl)acetyl]pyrrolidine-2-carboxamide]",< 4.00,7.64,6.07
